Results as given in BindingDB's records for doi:10.1111/cbdd.12779 (Ferdowsi University of Mashhad, 2016).
Where “and” joins values, the source holds several entries; their conditions need not be identical. Equal entries are not always repeated.

biological target: T1, Seed linoleate 13S-lipoxygenase-1 (Glycine max, UniProt P08170); assay: Lipo-oxygenase Inhibitory Assay; conditions: pH 7; 25 °C
T1 sequence (P08170 whole entry): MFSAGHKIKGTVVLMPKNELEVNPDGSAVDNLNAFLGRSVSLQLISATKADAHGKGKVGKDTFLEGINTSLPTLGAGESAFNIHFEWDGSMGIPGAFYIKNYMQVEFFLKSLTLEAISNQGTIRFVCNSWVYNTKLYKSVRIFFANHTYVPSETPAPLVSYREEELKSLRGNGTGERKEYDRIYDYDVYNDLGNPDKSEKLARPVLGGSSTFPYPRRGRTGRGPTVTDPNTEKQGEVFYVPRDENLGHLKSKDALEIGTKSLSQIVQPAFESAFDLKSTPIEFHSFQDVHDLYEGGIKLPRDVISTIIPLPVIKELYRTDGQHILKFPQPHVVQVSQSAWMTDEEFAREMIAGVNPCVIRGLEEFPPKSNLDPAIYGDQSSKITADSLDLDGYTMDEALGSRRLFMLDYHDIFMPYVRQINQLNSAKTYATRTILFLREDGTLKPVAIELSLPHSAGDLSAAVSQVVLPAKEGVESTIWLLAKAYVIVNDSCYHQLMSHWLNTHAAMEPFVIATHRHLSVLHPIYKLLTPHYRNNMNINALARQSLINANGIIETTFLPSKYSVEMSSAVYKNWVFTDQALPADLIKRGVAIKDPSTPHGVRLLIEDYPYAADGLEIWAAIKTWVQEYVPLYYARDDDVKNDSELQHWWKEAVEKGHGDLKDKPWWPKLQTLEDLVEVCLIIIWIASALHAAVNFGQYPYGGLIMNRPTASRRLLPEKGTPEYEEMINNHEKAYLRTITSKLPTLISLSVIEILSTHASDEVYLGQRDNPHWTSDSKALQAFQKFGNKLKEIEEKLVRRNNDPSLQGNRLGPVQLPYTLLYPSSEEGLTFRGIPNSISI
Method: Solution A was 50 mm DMAB in an 100 mm phosphate buffer (pH 7.0). Solution B was a mixture of 10 mm MBTH (3 mL) and hemoglobin (5 mg/mL, 3 mL) in 50 mm phosphatebuffer at pH 5.0 (25 mL). A linoleic acid solution was prepared by mixing 5 mg of linoleic acid with 50 mg Tween-20 in 3 mL water and then diluted with KOH 100 mmto a final volume of 5 mL. In the standard assay, the sample in ethanol (25 uL), SLO (EC 1,13,11,12; 4000 units/mL; 25 uL) and phosphate buffer, pH 7.0 (50 mm; 900 uL), were mixed in a test-tube and preincubation was carried out for 5 min at room temperature. A control test was done with the same volume of ethanol. Afterthe preincubation, linoleic acid solution (50 uL) was added to start the peroxidation reaction, and, 7 min later, solution A (270 uL) and then solution B (130 uL) were added to start the color formation. Further, 5 min later, 200 uL of a 2% SDS solution was added to terminate the reaction.

Structure (SMILES)	IC50
COc1cc(C)cc(OC)c1C/C=C(\C)CC/C=C(\C)CCC=C(C)C [1,3-Dimethoxy-5-methyl-2-((2E,6E)-3,7,11-trimethyldodeca-2,6,10-trien-1-yl)benzene (11)]	0.52 µM
Cc1nc(N2CCN(C)CC2)nc2c1Nc1ccccc1S2 [4-MMPB]	22.6 µM
COc1cc(C)cc(OC)c1CC=C(C)C [1,3-Dimethoxy-5-methyl-2-(3-methylbut-2-en-1-yl)benzene (9)]	7.6 µM
C=CCc1ccc(OC)c(OC)c1 [METHYLEUGENOL]	33.3 µM
COc1cc(C)cc(OC)c1C/C=C(\C)CCC=C(C)C [(E)-2-(3,7-Dimethylocta-2,6-dien-1-yl)-1,3-dimethoxy-5-methylbenzene (10)]	5.3 µM

Second part, the compound after the results:

IC50	Structure (SMILES)
31.4 µM and 103 µM	C=CCc1ccc(OC)cc1OC [1-Allyl-2,4-dimethoxybenzene (5)]
43.2 µM	C=CCc1cc(OC)cc(OC)c1 [1-Allyl-3,5-dimethoxybenzene (2)]
30.5 µM	C=CCc1c(OC)cc(C)cc1OC [2-Allyl-1,3-dimethoxy-5-methylbenzene (8)]
128 µM	C=CCc1cccc(OC)c1OC [1,2-dimethoxy-3-(prop-2-en-1-yl)benzene (3)]
53.2 µM	C=CCc1c(OC)cccc1OC [2-Allyl-1,3-dimethoxybenzene (6)]
83.2 µM	C=CCc1c(OC)cc(OC)cc1OC [2-Allyl-1,3,5-trimethoxybenzene (7)]
